According to patent US20240108702A1, “Use Of Naturally Occurring Cyclic Peptides For Treatment Of SARS-COV-2 Infection” (The University of Southern California, priority 2021, published 2024):
Like-named read-outs stand apart in the source and are kept apart here. Where a SMILES comes first, the peptide text is derived from it. Bridges are numbered along the chain shown (N, C = ends).

Settings: for LOAEL: i.v.
[1] = female rats, 5 mg/kg/day, Day 8, median
[2] = female rats, 10 mg/kg/day, Day 8, median
[3] = female rats, 20 mg/kg, Day 2, median
[4] = male rats, 5 mg/kg/day, Day 8, median
[5] = male rats, 10 mg/kg/day, Day 8, median
[6] = male rats, 20 mg/kg, Day 2, median

Q: What does the source list for `CC[C@H](C)[C@@H]1NC(=O)[C@@H]2CSSC[C@H](NC(=O)[C@H](CCCNC(=N)N)NC(=O)[C@@H]3CSSC[C@H](NC1=O)C(=O)N[C@@H]([C@@H](C)O)C(=O)N[C@@H](CCCNC(=N)N)C(=O)NCC(=O)N[C@@H](Cc1ccccc1)C(=O)N3)C(=O)N[C@@H](CC(C)C)C(=O)N[C@H]1CSSC[C@H](NC(=O)[C@H](C(C)C)NC(=O)CNC(=O)[C@H](CCCNC(=N)N)NC(=O)[C@H](CCCNC(=N)N)NC1=O)C(=O)N[C@@H](CCCNC(=N)N)C(=O)N2` [Peptide 1] (cyclo(GFCRCLCRRGVCRCICTR); disulfide 3-16, 5-14, 7-12)?
A: LOAEL (Sprague-Dawley rats, study duration 7 days (Table 8)): 20 mg/kg/day; mortality (determined unrelated to treatment) (female rats, 5 mg/kg dose group, found dead Day 15): 1 out of 16; A/G [1]: 2.10; ALP [1]: 92.0 U/L; ALT [1]: 35.0 U/L; APTT [1]: 10.6 s; AST [1]: 139.0 U/L; Albumin [1]: 3.9 g/dL; Basophils [1]: 0.3%; Basophils absolute [1]: 0.02 10^3/mm^3; CK [1]: 792 U/L; Calcium [1]: 9.80 mg/dL; Chloride [1]: 105.0 mmol/L; Cholesterol [1]: 55.0 mg/dL; Creatinine [1]: 0.3 mg/dL; Eosinophils [1]: 3.6%; Eosinophils absolute [1]: 0.30 10^3/mm^3; Fibrinogen [1]: 223 mg/dL; GGT [1]: 0.0 U/L; Globulin [1]: 1.8 g/dL; Glucose [1]: 97 mg/dL; HDW [1]: 2.37 g/dL; Hct [1]: 40.5%; Hemoglobin [1]: 13.5 g/dL; K [1]: 4.9 mmol/L; LUC [1]: 0.3%; LUC absolute [1]: 0.02 10^3/mm^3; Lymphocyte absolute [1]: 4.78 10^3/mm^3; Lymphocytes [1]: 68.1%; MCH [1]: 19.1 pg; MCHC [1]: 33.4 g/dL; MCV [1]: 57.9 fL; Monocyte absolute [1]: 0.17 10^3/mm^3; Monocytes [1]: 2.6%; Na [1]: 143 mmol/L; Neutrophil absolute [1]: 1.33 10^3/mm^3; Neutrophils [1]: 26.7%; PT [1]: 16.3 s; Phos [1]: 7.3 mg/dL; Platelets [1]: 801 10^3/mm^3; RBC [1]: 6.88 10^6/mm^3; RDW [1]: 12.7%; Reticulocytes [1]: 3.9%; Reticulocytes absolute [1]: 256.7 10^3/mm^3; T-Bil [1]: 0.00 mg/dL; TP [1]: 5.8 g/dL; Triglycerides [1]: 25 mg/dL; Urea N [1]: 20 mg/dL; WBC [1]: 6.50 10^3/mm^3; A/G [2]: 2.15; ALP [2]: 109.5 U/L; ALT [2]: 32.5 U/L; APTT [2]: 10.9 s; AST [2]: 122.0 U/L; Albumin [2]: 3.9 g/dL; Basophils [2]: 0.4%; Basophils absolute [2]: 0.04 10^3/mm^3; CK [2]: 474 U/L; Calcium [2]: 9.95 mg/dL; Chloride [2]: 105.0 mmol/L; Cholesterol [2]: 55.0 mg/dL; Creatinine [2]: 0.3 mg/dL; Eosinophils [2]: 3.3%; Eosinophils absolute [2]: 0.33 10^3/mm^3; Fibrinogen [2]: 283 mg/dL; GGT [2]: 0.0 U/L; Globulin [2]: 1.8 g/dL; Glucose [2]: 99 mg/dL; HDW [2]: 2.45 g/dL; Hct [2]: 41.2%; Hemoglobin [2]: 13.7 g/dL; K [2]: 5.05 mmol/L; LUC [2]: 0.35%; LUC absolute [2]: 0.04 10^3/mm^3; Lymphocyte absolute [2]: 7.13 10^3/mm^3; Lymphocytes [2]: 72.0%; MCH [2]: 19.0 pg; MCHC [2]: 33.3 g/dL; MCV [2]: 57.3 fL; Monocyte absolute [2]: 0.39 10^3/mm^3; Monocytes [2]: 3.5%; Na [2]: 142.5 mmol/L; Neutrophil absolute [2]: 2.18 10^3/mm^3; Neutrophils [2]: 19.9%; PT [2]: 17.1 s; Phos [2]: 7.05 mg/dL; Platelets [2]: 939 10^3/mm^3; RBC [2]: 7.21 10^6/mm^3; RDW [2]: 13.0%; Reticulocytes [2]: 4.1%; Reticulocytes absolute [2]: 277.3 10^3/mm^3; T-Bil [2]: 0.00 mg/dL; TP [2]: 5.7 g/dL; Triglycerides [2]: 26 mg/dL; Urea N [2]: 21 mg/dL; WBC [2]: 10.75 10^3/mm^3; A/G [3]: 3.00; ALP [3]: 142.0 U/L; ALT [3]: 62.0 U/L; APTT [3]: 29.2 s; AST [3]: 397.0 U/L; Albumin [3]: 3.0 g/dL; Basophils [3]: 0.5%; Basophils absolute [3]: 0.06 10^3/mm^3; CK [3]: 1,506 U/L; Calcium [3]: 10.30 mg/dL; Chloride [3]: 104.0 mmol/L; Cholesterol [3]: 52.0 mg/dL; Creatinine [3]: 0.5 mg/dL; Eosinophils [3]: 1.5%; Eosinophils absolute [3]: 0.13 10^3/mm^3; Fibrinogen [3]: 83 mg/dL; GGT [3]: 4.0 U/L; Globulin [3]: 1.0 g/dL; Glucose [3]: 218 mg/dL; HDW [3]: 2.37 g/dL; Hct [3]: 46.9%; Hemoglobin [3]: 15.2 g/dL; K [3]: 4.9 mmol/L; LUC [3]: 0.5%; LUC absolute [3]: 0.05 10^3/mm^3; Lymphocyte absolute [3]: 5.56 10^3/mm^3; Lymphocytes [3]: 60.5%; MCH [3]: 19.6 pg; MCHC [3]: 32.3 g/dL; MCV [3]: 61.0 fL; Monocyte absolute [3]: 0.33 10^3/mm^3; Monocytes [3]: 3.8%; Na [3]: 141 mmol/L; Neutrophil absolute [3]: 2.55 10^3/mm^3; Neutrophils [3]: 33.6%; PT [3]: 23.5 s; Phos [3]: 9.3 mg/dL; Platelets [3]: 604 10^3/mm^3; RBC [3]: 7.63 10^6/mm^3; RDW [3]: 12.2%; Reticulocytes [3]: 5.3%; Reticulocytes absolute [3]: 326.0 10^3/mm^3; T-Bil [3]: 0.00 mg/dL; TP [3]: 3.90 g/dL; Triglycerides [3]: 106 mg/dL; Urea N [3]: 20 mg/dL; WBC [3]: 8.15 10^3/mm^3; microscopic findings, liver (female rats, 5 and 10 mg/kg/day, end of treatment, non-adverse, recoverable): minimal to mild liver necrosis; microscopic findings, adrenal (male and female rats, 20 mg/kg): Mild to severe adrenal necrosis; body weight (male and female rats, 20 mg/kg dosing group): significant decreases in body weights; A/G [4]: 2.2; ALP [4]: 212.0 U/L; ALT [4]: 40.0 U/L; APTT [4]: 14.8 s; AST [4]: 133.0 U/L; Albumin [4]: 3.8 g/dL; Basophils [4]: 0.3%; Basophils absolute [4]: 0.03 10^3/mm^3; CK [4]: 766 U/L; Calcium [4]: 9.75 mg/dL; Chloride [4]: 104.5 mmol/L; Cholesterol [4]: 70.5 mg/dL; Creatinine [4]: 0.2 mg/dL; Eosinophils [4]: 3.9%; Eosinophils absolute [4]: 0.37 10^3/mm^3; Fibrinogen [4]: 263 mg/dL; GGT [4]: 0.0 U/L; Globulin [4]: 1.7 g/dL; Glucose [4]: 73 mg/dL; HDW [4]: 2.30 g/dL; Hct [4]: 43.8%; Hemoglobin [4]: 14.1 g/dL; K [4]: 5.15 mmol/L; LUC [4]: 0.3%; LUC absolute [4]: 0.03 10^3/mm^3; Lymphocyte absolute [4]: 6.03 10^3/mm^3; Lymphocytes [4]: 71.8%; MCH [4]: 20.0 pg; MCHC [4]: 32.1 g/dL; MCV [4]: 61.8 fL; Monocyte absolute [4]: 0.22 10^3/mm^3; Monocytes [4]: 2.9%; Na [4]: 144 mmol/L; Neutrophil absolute [4]: 2.04 10^3/mm^3; Neutrophils [4]: 20.2%; PT [4]: 16.0 s; Phos [4]: 8.45 mg/dL; Platelets [4]: 1,052 10^3/mm^3; RBC [4]: 7.06 10^6/mm^3; RDW [4]: 14.0%; Reticulocytes [4]: 5.2%; Reticulocytes absolute [4]: 359.7 10^3/mm^3; T-Bil [4]: 0.00 mg/dL; TP [4]: 5.5 g/dL; Triglycerides [4]: 37 mg/dL; Urea N [4]: 16.5 mg/dL; WBC [4]: 8.40 10^3/mm^3; A/G [5]: 2.35; ALP [5]: 212.5 U/L; ALT [5]: 32.5 U/L; APTT [5]: 14.6 s; AST [5]: 113.5 U/L; Albumin [5]: 3.7 g/dL; Basophils [5]: 0.3%; Basophils absolute [5]: 0.03 10^3/mm^3; CK [5]: 613 U/L; Calcium [5]: 9.70 mg/dL; Chloride [5]: 105.0 mmol/L; Cholesterol [5]: 66.0 mg/dL; Creatinine [5]: 0.3 mg/dL; Eosinophils [5]: 3.0%; Eosinophils absolute [5]: 0.31 10^3/mm^3; Fibrinogen [5]: 261 mg/dL; GGT [5]: 0.0 U/L; Globulin [5]: 1.6 g/dL; Glucose [5]: 83 mg/dL; HDW [5]: 2.20 g/dL; Hct [5]: 43.7%; Hemoglobin [5]: 14.2 g/dL; K [5]: 5.1 mmol/L; LUC [5]: 0.3%; LUC absolute [5]: 0.03 10^3/mm^3; Lymphocyte absolute [5]: 6.69 10^3/mm^3; Lymphocytes [5]: 70.9%; MCH [5]: 20.2 pg; MCHC [5]: 32.4 g/dL; MCV [5]: 62.6 fL; Monocyte absolute [5]: 0.28 10^3/mm^3; Monocytes [5]: 2.7%; Na [5]: 144 mmol/L; Neutrophil absolute [5]: 1.85 10^3/mm^3; Neutrophils [5]: 22.6%; PT [5]: 17.5 s; Phos [5]: 8.6 mg/dL; Platelets [5]: 1,086 10^3/mm^3; RBC [5]: 7.06 10^6/mm^3; RDW [5]: 13.1%; Reticulocytes [5]: 4.6%; Reticulocytes absolute [5]: 314.2 10^3/mm^3; T-Bil [5]: 0.00 mg/dL; TP [5]: 5.35 g/dL; Triglycerides [5]: 29 mg/dL; Urea N [5]: 19.0 mg/dL; WBC [5]: 10.05 10^3/mm^3; A/G [6]: 2.70; ALP [6]: 232.0 U/L; ALT [6]: 74.0 U/L; APTT [6]: 18.5 s; AST [6]: 245.0 U/L; Albumin [6]: 2.7 g/dL; Basophils [6]: 0.2%; Basophils absolute [6]: 0.03 10^3/mm^3; CK [6]: 707 U/L; Calcium [6]: 9.40 mg/dL; Chloride [6]: 101.0 mmol/L; Cholesterol [6]: 67.0 mg/dL; Creatinine [6]: 0.4 mg/dL; Eosinophils [6]: 1.1%; Eosinophils absolute [6]: 0.15 10^3/mm^3; Fibrinogen [6]: 98 mg/dL; GGT [6]: 0.0 U/L; Globulin [6]: 1.0 g/dL; Glucose [6]: 175 mg/dL; HDW [6]: 2.44 g/dL; Hct [6]: 37.3%; Hemoglobin [6]: 12.1 g/dL; K [6]: 5.1 mmol/L; LUC [6]: 0.5%; LUC absolute [6]: 0.07 10^3/mm^3; Lymphocyte absolute [6]: 4.24 10^3/mm^3; Lymphocytes [6]: 30.9%; MCH [6]: 20.0 pg; MCHC [6]: 31.8 g/dL; MCV [6]: 62.5 fL; Monocyte absolute [6]: 0.93 10^3/mm^3; Monocytes [6]: 8.1%; Na [6]: 140 mmol/L; Neutrophil absolute [6]: 8.40 10^3/mm^3; Neutrophils [6]: 61.1%; PT [6]: 21.3 s; Phos [6]: 9.3 mg/dL; Platelets [6]: 728 10^3/mm^3; RBC [6]: 6.04 10^6/mm^3; RDW [6]: 14.3%; Reticulocytes [6]: 6.4%; Reticulocytes absolute [6]: 373.3 10^3/mm^3; T-Bil [6]: 0.10 mg/dL; TP [6]: 3.7 g/dL; Triglycerides [6]: 193 mg/dL; Urea N [6]: 28 mg/dL; WBC [6]: 13.70 10^3/mm^3; microscopic findings, liver (male rats, 20 mg/kg, adverse): minimal to moderate liver necrosis; LOAEL (rats): 20 mg/kg; clinical signs (rats, once daily i.v. infusion 5 and 10 mg/kg/day, temporary, resolved in recovery): non-adverse, treatment-related clinical signs; acute, treatment-related mortality (rats, single i.v. 20 mg/kg, Day 1): 5 out of 12
